Reference: US9051339B2, “Sulfur-containing bicyclic compound” (Astellas Pharma Inc., priority 2013, dated 2015)

Legend:
[1] = target: T1, heterodimers of GABAB1b and GABAB2 (Homo sapiens, UniProt O75899+Q9UBS5); test: FLIPR intracellular calcium mobilization in HEK293 cells stably expressing GABAB receptor; type: cell-based; details: 100 μM GABA = 100%; for EC50: concentration raising reaction rate from 5% with 1 μM GABA to 50%, read-out: Potency (PAM Potency of GABAB); for Emax: maximum reaction rate in presence of 1 μM GABA, test drug up to 30 μM, read-out: Efficacy (PAM Efficacy of GABAB)
T1 construct: host or cells: HEK293
T1 sequence (Q9UBS5 1-844 isoform Q9UBS5-2): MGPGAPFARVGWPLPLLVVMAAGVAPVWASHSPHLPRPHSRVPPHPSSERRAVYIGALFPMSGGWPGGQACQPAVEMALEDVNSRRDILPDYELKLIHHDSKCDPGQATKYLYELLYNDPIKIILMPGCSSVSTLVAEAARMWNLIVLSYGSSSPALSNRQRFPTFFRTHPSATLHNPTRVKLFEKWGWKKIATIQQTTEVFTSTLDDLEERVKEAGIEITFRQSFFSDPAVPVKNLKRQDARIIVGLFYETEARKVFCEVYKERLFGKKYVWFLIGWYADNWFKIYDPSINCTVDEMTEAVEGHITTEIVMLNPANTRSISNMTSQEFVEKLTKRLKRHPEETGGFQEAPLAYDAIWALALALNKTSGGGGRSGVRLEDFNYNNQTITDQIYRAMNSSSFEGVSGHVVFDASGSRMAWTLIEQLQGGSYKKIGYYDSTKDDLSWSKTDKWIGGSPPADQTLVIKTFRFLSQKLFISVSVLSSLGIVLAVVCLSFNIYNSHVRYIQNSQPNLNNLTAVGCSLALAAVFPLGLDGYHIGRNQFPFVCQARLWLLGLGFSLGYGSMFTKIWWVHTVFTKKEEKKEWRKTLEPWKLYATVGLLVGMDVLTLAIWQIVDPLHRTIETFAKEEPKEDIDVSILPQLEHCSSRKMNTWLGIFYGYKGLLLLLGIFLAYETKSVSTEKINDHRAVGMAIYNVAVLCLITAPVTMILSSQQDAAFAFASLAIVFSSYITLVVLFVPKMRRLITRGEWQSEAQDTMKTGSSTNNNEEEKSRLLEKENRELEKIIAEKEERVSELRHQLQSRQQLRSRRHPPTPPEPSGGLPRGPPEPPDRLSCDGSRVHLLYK
T1 sequence (O75899 42-941): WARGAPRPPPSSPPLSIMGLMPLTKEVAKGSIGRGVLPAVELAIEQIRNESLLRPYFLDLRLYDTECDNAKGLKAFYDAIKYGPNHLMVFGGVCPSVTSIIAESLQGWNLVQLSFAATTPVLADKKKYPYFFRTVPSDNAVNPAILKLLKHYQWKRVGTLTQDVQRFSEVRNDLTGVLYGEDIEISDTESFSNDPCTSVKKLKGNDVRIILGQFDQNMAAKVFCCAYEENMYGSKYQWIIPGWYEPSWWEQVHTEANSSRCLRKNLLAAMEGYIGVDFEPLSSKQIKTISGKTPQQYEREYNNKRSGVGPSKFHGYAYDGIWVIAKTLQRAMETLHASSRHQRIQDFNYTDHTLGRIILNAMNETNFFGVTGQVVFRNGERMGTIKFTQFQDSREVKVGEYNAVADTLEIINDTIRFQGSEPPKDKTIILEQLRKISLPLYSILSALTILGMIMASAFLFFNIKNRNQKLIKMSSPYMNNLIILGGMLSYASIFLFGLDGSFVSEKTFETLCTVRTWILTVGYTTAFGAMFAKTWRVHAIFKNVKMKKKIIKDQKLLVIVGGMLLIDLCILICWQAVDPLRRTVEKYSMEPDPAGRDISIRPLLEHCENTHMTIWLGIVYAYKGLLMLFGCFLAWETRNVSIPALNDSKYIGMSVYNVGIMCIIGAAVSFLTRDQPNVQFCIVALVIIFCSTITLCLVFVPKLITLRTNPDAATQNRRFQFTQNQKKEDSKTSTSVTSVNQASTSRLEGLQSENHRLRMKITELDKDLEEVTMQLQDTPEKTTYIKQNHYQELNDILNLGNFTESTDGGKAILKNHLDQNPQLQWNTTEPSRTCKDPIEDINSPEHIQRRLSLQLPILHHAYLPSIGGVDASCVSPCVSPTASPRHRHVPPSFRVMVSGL
Source text: A natural GABAB receptor has a heterodimeric structure consisting of two kinds of subunits of GABAB1 and GABAB2 (Nature, 1997, vol. 386, p. 239-246) In the subunit of GABAB1, two major splice variants referred to as GABAB1a and 1b exist. However, the two variants have no difference in the pharmacological effects in the receptor-downstreaming signals (Nature, 1998, vol. 396, p. 683-687).
In HEK293 cells expressing the heterodimers of GABAB1b and GABAB2, the PAM action in the presence of GABA was measured over time with a change in the intracellular Ca^2+ concentration using RFU (relative fluorescence units) as an index, and evaluated.
All vectors, wherein each vector was formed by human GABAB1b (NM_021903. 2), GABAB2 (NM_005458. 7), or Gαqo chimera, were incorporated by lipofection to establish stably expressing human embryonic kidney-derived cell lines, HEK293 cells (ATCC).
The Gαqo chimera was fabricated by the following method. The genes coding human Gαq (NM_002072.3) were cloned, and C-terminal 15 base pairs (1107-1121 bp) of ORF (41-1121 bp) of Gaq was substituted with C-terminal 15 base pairs (1948-1962 bp) of ORF (898-1962 bp) of human Gao (NM_138736. 2) into a Gαqo chimera.
A change in the intracellular concentration of calcium mobilized due to activation of a GABAB receptor was measured with a Fluorometric Imaging Plate Reader (FLIPR, Molecular Devices). The stably expressing cells established as described above were proliferated in a D-MEM medium containing a screening agent (0.5 mg/mL G418 Disulfate and 0.2 mg/mL Hydromycin B solution), 1% penicillin/streptomycin, and 10% FCS. About 1×10^4 cells/well were diluted and seeded in a black-wall, 384-well poly-D-lysin-coated plate (Becton Dickinson) in a D-MEM medium containing 10% FCS, but not a selective agent and 1% penicillin/streptomycin. After 24 hours, the medium was removed from the plate, and a Fluo-4 loaded solution (20 μL) was added to each well, followed by incubation at room temperature for 2 hours. The fluorescent reagent loaded solution was removed from each well, the cells were washed with a base buffer three times, and then a base buffer (20 μL) was added thereto, followed by analysis with FLIPR TETRA (Molecular Devices). The base buffer (10 μL) solution of the test drug was added thereto to a final concentration (1 nM to 30 μM) and the measurement of a change in the fluorescence was initiated. Thereafter, GABA (1 μM, 20 μL) was added thereto and the measurement was continued. The change in the fluorescence was measured every two or five seconds.
The maximum reaction rate of 100 μM GABA was taken as 100%. […]

[2] = test system: spontaneous alternation behavior (short-term memory impairment); test: Y-maze test: improvement effect on MK-801-induced cognitive impairment; type: in vivo, mouse; details: oral, once, 30 minutes before test; ddY male mice; MK-801 0.15 mg/kg i.p.; spontaneous alternation rate
Method: The effect on the improvement of short-term memory impairment of the compound of the present invention was evaluated using a Y-maze test that is an experimental system of spontaneous alternation behavior.
As the Y maze, a maze, in which three runways having a length of one arm of 40 cm, a height of a wall of 13 cm, a width of a floor of 3 cm, and a width of a top of 10 cm are each joined at 120 degrees in a Y shape, was used. […]
The mouse was placed at one end of a certain place in the runway in the Y maze, and then freely explored for 8 minutes, and the runways into which the mice invaded and the order thereof were recorded. The number of the entries of the mice within a measurement time was counted and defined as a total number of entries. Among these, a combination when the mice invaded into different three runways (for example, in a case where the three arms are referred to as a, b, and c, respectively, and the order of the arms with entries is abccbacab, the number was counted as 4, including the repetition) was defined as the number of spontaneous alternation behaviors. For the spontaneous alternation rate, a spontaneous alternation rate calculated by the following equation was taken as an index of spontaneous alternation behavior: Spontaneous alternation rate=number of spontaneous alternation behaviors/(total number of entries−2)×100. […]

Compound | EC50 [1] [nM] | Emax [1] [%] | MED [2] [mg/kg]
Cc1nc(CN2CC[C@@H](O)[C@H](O)C2)c2cc(C3CCC(C)(C)CC3)sc2n1 (single isomer, unassigned) [Ex31, trans-1-{[6-(4,4-dimethylcyclohexyl)-2-methylthieno[2,3-d]pyrimidin-4-yl]methyl}piperidine-3,4-diol] | 220 | 273 | 1.0
Cc1nc(CN2CCS(=O)(=O)CC2)c2cc(C3CCC(C)(C)CC3)sc2n1 [Ex2, 6-(4,4-dimethylcyclohexyl)-4-[(1,1-dioxidothiomorpholin-4-yl)methyl]-2-methylthieno[2,3-d]pyrimidine] | 59 | 470 | 0.1
